In series [1] the test system is targets in the SAFETYscan47 panel. The experiment in a line: SAFETYscan47 panel (DiscoverX), whole panel. Conditions: 3 µM, duplicates, all targets. How it is done: To further profile any off-target activity, we counter-screened SHR168442 in SAFETYscan47 panel, compiled by DiscoverX based on the recommendation by major pharmaceutical companies. SHR168442 was screened at 3 µM in duplicates.

A short description of the next series: Dermal PK, miniature pig. Format: in vivo, Bama miniature pig. The following applies: for Exposure in plasma: topical. How it is done: Similar procedures were carried out for dermal PK of female SD rats and female Bama miniature pigs. Briefly, each area of topical application was 4 cm × 9 cm for SD rats and 6 cm × 6 cm for miniature pigs. After decontamination, the biopsy sections of SD rats were tape stripped for five times and those of miniature pig for twenty-five times, respectively. Blood and dorsal skin tissues of the animals were collected and analyzed for the compounds via LC/MS. The experimental protocol used in this study was approved by the Institutional Animal Care and Use Committees (IACUC). The experiments were conducted in accordance with the Guiding Principles for the Care and Use of Laboratory Animals and complied with the ARRIVE guidelines.

Series [2] is described as follows: Liver microsomal stability, mouse. Format: in vitro ADME. The following applies: liver microsomes, pH 7.4, read-out: Liver microsomal stability, t1/2, Mouse. How it is done: The compound was mixed with 0.5 mg/ml human liver microsome (Thermal Fisher) at a final concentration of 1 µM in 100 mM potassium phosphate buffer, pH 7.4. The reactions were initiated by the addition of 1 mM NADPH. Samples in duplicate were incubated at 37 °C with mixing. 100 µL aliquots were transferred after 0, 5, 10, 30, 45, 60 minutes to a new tube with 300 µL acetonitrile, incubated on ice for 30 minutes, centrifuged at 1800×g at 4 °C for 10 minutes. The supernatants were transferred to glass vials subjected to LC/MS analysis. Peak areas were measured to calculate half-life according to the formula t1/2 = − 0.693/slope of linear regression analysis of ln [concentration] versus incubation time. Similar methods were applied to access mouse and rat liver microsomal stability of the compounds.
A general note: Liver microsomes are vesicles of endoplasmic reticulum, rich in cytochrome P450 enzymes.

Another series deals with T1, RORγ (Homo sapiens, UniProt P51449).
T1 sequence (P51449 260-518 limits assumed): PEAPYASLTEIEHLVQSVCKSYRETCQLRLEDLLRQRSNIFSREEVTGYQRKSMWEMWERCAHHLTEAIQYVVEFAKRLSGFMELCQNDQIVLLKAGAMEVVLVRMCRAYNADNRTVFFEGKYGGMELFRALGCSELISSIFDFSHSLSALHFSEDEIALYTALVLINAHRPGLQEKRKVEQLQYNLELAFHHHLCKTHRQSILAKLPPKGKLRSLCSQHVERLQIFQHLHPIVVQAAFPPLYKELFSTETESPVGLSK
The experiment in a line: RORγ luciferase reporter assay. It counts as cell-based. Conditions: nuclear reporter assay, n = 3; read-out: inhibition of the RORγ transcriptional activity, average IC50. How it is done: Ursolic acid was used as a positive control.
Cell-based luciferase reporter assays for RORα and RORγ (Indigo Biosciences) were performed according to the manufacturer’s protocol.
A general note: Reporter assays use an easily measured gene product as a stand-in for the process of interest.

In series [3] the test system is IMQ-induced psoriasis-like skin inflammation mice. Nature of the series: IMQ-induced psoriasis-like skin inflammation model, topical treatment. Format: in vivo, BALB/c mice. How it is done: At the end of the study, the mouse plasma and diseased back skin were collected 3 h after topical application for PK analysis.
Psoriasis was induced by topical application of IMQ cream on the shaved dorsal skin as described by Leslie van der Fits et al.[18]. SHR168442 in Vaseline (n = 10 per group) was treated once a day (QD) from 3 days prior to day 1, and then twice a day (BID) from day 1 to day 6. The animal was sacrificed at 3 h after the first dose in the morning of day 7. Erythema, scaling, and thickness of the back skin were scored independently daily on a scale from 0 to 4. Blood and back skin tissues from the study were collected at 3 h (n = 4) post dosing in the morning of […]. The plasma and skin tissues after tape stripping were analyzed for Compound 1 as described above. The in-life portion of the study was carried out at Washington Biotechnology (Baltimore, MD). The housing conditions and in-life procedures were approved by IACUC. The experiments were conducted in accordance with the Guiding Principles for the Care and Use of Laboratory Animals and complied with the ARRIVE guidelines.

The target of the next series is T2, RORγ LBD (Homo sapiens, UniProt P51449).
T2 construct: The assay was performed with GST-tag RORγ LBD (25 ng/reaction, Creative Biomart); purchased Creative Biomart
T2 sequence (P51449 269-508 limits assumed): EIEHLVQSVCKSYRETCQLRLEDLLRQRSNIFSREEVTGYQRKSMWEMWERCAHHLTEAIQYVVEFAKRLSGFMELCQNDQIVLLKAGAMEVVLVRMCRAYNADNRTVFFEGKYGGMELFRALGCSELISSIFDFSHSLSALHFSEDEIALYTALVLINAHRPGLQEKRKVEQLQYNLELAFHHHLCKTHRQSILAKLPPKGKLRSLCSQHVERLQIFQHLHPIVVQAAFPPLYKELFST
Nature of the series: LanthaScreen TR-FRET human RORγ coactivator assay. It counts as biochemical. Conditions: antagonist mode, read-out: Binding of RORγ LBD, IC50. From the text: In LanthaScreen TR-FRET RORγ coactivator assay, the RORγ LBD was constitutively active and the coactivator peptide (fluorescein-D22) was recruited in the absence of ligand, or compound (Fig. 2a). The binding of an antagonist to RORγ LBD causes a conformational change of the receptor, leading to a decrease in the affinity of the receptor for the coactivator peptide. The separation of the fluorescently labeled coactivator peptide from RORγ LBD from the receptor with the terbium-labeled antibody causes a decrease in the TR-FRET signal compared to those without compound. The assay was validated by detecting the ligand-independent recruitment of coactivator peptide in the presence or absence of RORγ LBD (2.5- to 3-fold assay window). Effects of the key compounds of the novel chemotype in Fig. 1, were tested in LanthaScreen TR-FRET RORγ coactivator assay.
The assay was performed with GST-tag RORγ LBD (25 ng/reaction, Creative Biomart), 0.6 μM Fluorescein-D22 coactivator peptide and 8 nM Tb anti-GST antibody (Invitrogen) at room temperature for 60 minutes. The fluorescent signals were measured with 520 nm emission and 495 nm excitation on Tecan Infinite. The data were calculated using DMSO control as 0% inhibition and non-protein control as 100% inhibition. IC50 values were calculated using non-linear regression analysis of GraphPad Prism in all assays.
In general terms: Time-resolved FRET reads energy transfer from a long-lived donor to a nearby acceptor.

Molecules are shown by their SMILES. Where only a bound is given, the exact number is not on record here.

As a reminder, the IC50 is the concentration needed to halve the response being measured. With `CCS(=O)(=O)c1ccc([C@H](CCO)c2nc3c(Cl)c(N4CCC(F)(F)CC4)c(Cl)cc3[nH]2)cc1` [SHR168442, (S)-3-(4,6-dichloro-5-(4,4-difluoropiperidin-1-yl)-1H-benzo[d]imidazol-2-yl)-3-(4-(ethylsulfonyl)phenyl)propan-1-ol], in series [1], the “inhibition of the targets in the SAFETYscan47 panel” value was “below 50%”. The Exposure in plasma entry in “Dermal PK, miniature pig” (2% in Vaseline, 3 h) is on record as “blq (below limit of quantitation (< 6 ng/mL))”; in “Dermal PK, miniature pig” (2% in Vaseline, 6 h), “blq (below limit of quantitation (< 6 ng/mL))”; in “Dermal PK, miniature pig” (2% in Vaseline, 24 h) it was “blq (below limit of quantitation (< 6 ng/mL))”; in “Dermal PK, miniature pig” (8% in Vaseline, 3 h), “blq (below limit of quantitation (< 6 ng/mL))”; in the series “Dermal PK, miniature pig” (8% in Vaseline, 6 h), “blq (below limit of quantitation (< 6 ng/mL))”; in “Dermal PK, miniature pig” (8% in Vaseline, 24 h) it was “blq (below limit of quantitation (< 6 ng/mL))”. For the same compound, the “systemic exposures in miniature pigs” value in the series “Dermal PK, miniature pig” (female, Bama, pig, in vivo) is listed as < 6 ng/mL. In addition, the half-life at 1 µM in series [2] was found to be 6.2 min. Also, the IC50 turned out to be 15 ± 9 nM at RORγ and 35 ± 9 nM at RORγ LBD. Also, in series [3] (2%, 4% and 8% in Vaseline topical), the “cumulative scores (scaling, erythema, thickness)” value is “clear dose-dependent reduction”. Besides, the scores of erythema entry in series [3] (4% and 8% topical, day 6, versus vehicle control) is “significantly reduced”. Further, in series [3] (8% in Vaseline topical, days 4 to 6, scale 0 to 4), the score of scaling is listed as < 1.0. In series [3] (3 h after topical application, all treatments), the “exposures in diseased skin and plasma” value is “high in skin and low in plasma”. In addition, the body weight result in series [3] (all treatment groups) is “no significant body weight loss”.

Source of the values: paper PMC8080595, “Discovery of a novel RORγ antagonist with skin-restricted exposure for topical treatment of mild to moderate psoriasis” (Scientific Reports, 2021).
